melting point: 178 °C
SMILES: CCCc1nn(C)c2c(NCc3ccc(OC)c(Cl)c3)nc(CCC(=O)O)nc12 [Example 2, 3-[7-(3-chloro-4-methoxybenzylamino)-1-methyl-3-propyl-1H-pyrazolo-[4,3-d]pyrimidin-5-yl]propionic acid]

— patent US20040063730A1, “Pharmacuetical formulation comprising puyrazolo[4,-3-d]pyrimidines and antithrombotics, calcium antagonists, or prostaglandins or prostaglandin derivatives” (priority 2000, published 2004)
